Results on eleven compounds are retold here after patent US7405238B2, “Pharmacological inducement of the fed mode for enhanced drug administration to the stomach” (priority 1999, dated 2008).

The test system of experiment [1] is female beagles. The experiment is described as follows: Retention time of BaSO4 swelling tablet in stomach, dogs fasted 24 hours, Example 3. It counts as in vivo, dog. Conditions: mean of five dogs fasted 24 hours. The procedure:
(§1) Test formulations were administered in various regimens. In some of the tests, the dogs were given an immediate release (IR) regimen in the form of a single gelatin capsule containing a test species in a selected amount. A simulated controlled release (SCR) regimen was used in other tests by administering a gelatin capsule containing a test species in a selected amount every half hour. A third regimen was a controlled release (CR) regimen, in which the test species was incorporated in a compressed tablet of POLYOX 303 and magnesium stearate. […] The barium tablets were visualized every thirty minutes by fluoroscopy until they left the stomach. The time of the last observation of the 800 mg tablet in the stomach was recorded as the retention time. The test group also included a negative control using a fasted dog with no test formulations administered, and a positive control using a dog that was fed a standard 50 g meal but no test formulations.
(§2) Further tests were performed on a second group of dogs, consisting of five female beagles one year in age and weighing 5-7 kg each. The test protocols were the same as those in Example 1 except that the dogs were fasted for 24 hours before each test, and the test results are listed in Table II below, which lists the mean of the results observed among the five dogs as well as the range among the dogs for each test.
Further tests were performed on the second group of dogs, consisting of five female beagles one year in age and weighing 5-7 kg each. The test protocols were the same as those in Example 2, except that the controls were replaced by a negative control consisting of AVICEL (microcrystalline cellulose, FMC Corporation, Philadelphia, Pa., USA), administered as a simulated controlled release at 10 mg every half hour. The test results are listed in Table III below, which lists the mean of the results observed among the five dogs as well as the range among the dogs for each test.

Experiment [2] deals with female beagles. The experiment is described as follows: Retention time of BaSO4 swelling tablet in stomach, dogs fasted 24 hours, Example 2. It counts as in vivo, dog. Conditions: mean of five dogs fasted 24 hours. As for the experimental part:
(§3) Four dogs, all male beagles ranging in age from 10 months to 21 months and weighing from 6 kg to 10 kg each, were housed individually and each was fed a 1:1 (weight ratio) wet:dry mixture of food weighing 300 g once daily at 3:00 p.m. Water was provided ad libitum. The dogs were fasted for 6-8 hours overnight, preceded by the removal of feces and any uneaten food.
as §1, §2

The subject of experiment [3] is dogs. Conditions: administered in excess of 1 g; cited from earlier work.
Experiment [4] relates to male beagles. The experiment is described as follows: Retention time of BaSO4 swelling tablet in stomach, dogs, Example 1. It counts as in vivo, dog. Conditions: 7.94 × 19.05 mm BaSO4 tablet, mean of four dogs. As for the experimental part:
as §3, §1
The test results in terms of the retention times in hours are shown in Table I, which lists the means of the results observed among the four dogs as well as the range among the dogs for each test.

Several values for one entry are separate records, joined by “and”; a condition that tells them apart may be missing. Equal values may be shown once. Peptide text beside a SMILES is read from it.

Consider `COC(=O)[C@H](Cc1ccccc1)NC(=O)[C@@H](N)CC(=O)O` [Aspartame] (H-Asp-Phe-OMe), for which, in experiment [1] (200 mg, IR), the “Retention Time (h) Mean” value is listed as 3.8 ± 2.3 h.
Regarding `CCCCCCCCCCCCCCCC[n+]1ccccc1.[Cl-]` [Cetylpyridinium chloride, reference compound], the “Retention Time (h) Mean” value came out at 4.5 ± 2.6 h in experiment [2] (20 mg, IR); 4.0 ± 1.3 h in experiment [2] (50 mg, IR); 3.2 ± 0.9 h in experiment [2] (100 mg, IR); 4.0 ± 2.8 h in experiment [1] (5 mg, IR); 4.45 ± 2.6 h in experiment [1] (20 mg, IR).
For `N=C(N)NCCC[C@H](N)C(=O)O` [L-Arginine], the “effect on gastric emptying” value in experiment [3] is given as “slowed gastric emptying”. Also, the “Retention Time (h) Mean” value worked out at 3.6 ± 1.6 h in experiment [4] (300 mg, CR (POLYOX 303 tablet)) and 1.6 ± 0.2 h in experiment [4] (400 mg, IR).
With `CN(C)C(=O)C(CCN1CCC(O)(c2ccc(Cl)cc2)CC1)(c1ccccc1)c1ccccc1` [Loperamide, 4-(p-chlorophenyl)-4-hydroxy-N,N-dimethyl-α,α-diphenyl-1-piperidinebutyramide, reference compound], the “Retention Time (h) Mean” value in experiment [4] (0.1 mg, IR) is listed as 2.5 ± 1.3 h.
`CCCCC(CC)COC(=O)CC(C(=O)OCC(CC)CCCC)S(=O)(=O)O` (stereo not drawn) [Na docusate, reference compound]: the “Retention Time (h) Mean” value in experiment [4] (200 mg, IR) was 2.6 ± 1.4 h.
On to `NC(Cc1c[nH]c2ccccc12)C(=O)NC(Cc1c[nH]c2ccccc12)C(=O)O` (stereo not drawn) [Trp-Trp], for which the “Retention Time (h) Mean” value in experiment [2] (SCR, 5 mg every thirty minutes) is 4.6 ± 1.5 h; in experiment [2] (SCR, 10 mg every thirty minutes), 2.4 ± 1.8 h; in experiment [2] (SCR, 40 mg every thirty minutes) it was 3.4 ± 1.9 h; in experiment [4] (200 mg, IR) it was 3.1 ± 3.9 h and 2.1 ± 1.8 h; in experiment [4] (SCR, 20 mg every thirty minutes) it was 2.8 ± 0.3 h; in experiment [1] (SCR, 0.5 mg every thirty minutes), 4.6 ± 1.7 h. In addition, in experiment [1] (SCR, 2 mg every thirty minutes), the “Retention Time (h) Mean” value came to 4.2 ± 1.1 h.
As for `OC[C@@H](O)[C@H](O)[C@@H](O)CO` [Xylitol, CH2OH—(CHOH)3—CH2OH], the “Retention Time (h) Mean” value in experiment [4] (600 mg, IR) is on record as 3.1 ± 1.5 h.
For `N[C@@H](Cc1c[nH]c2ccccc12)C(=O)O` [tryptophan], the “effect on gastric emptying” value in experiment [3] is “slowed gastric emptying”.
Take `O=C(O)CCCCC1CCSS1` (stereo not drawn) [α-Lipoic acid]: in experiment [4] (150 mg, IR), the “Retention Time (h) Mean” value was found to be 2.8 ± 1.6 h.
As to glycine, the “effect on gastric emptying” value in experiment [3] is given as “slowed gastric emptying”.
Consider “β-Casomorphin: peptide released from β-casein; bovine sequence Tyr-Pro-Phe-Pro-Gly-Pro-Ile; species tested not stated (YPFPGPI; printed: Tyr-Pro-Phe-Pro-Gly-Pro-Ile)”, for which the “Retention Time (h) Mean” value is recorded as 2.6 ± 1.1 h in experiment [4] (25 mg, IR) and 3.5 ± 2.1 h in experiment [1] (10 mg, IR).
